Where two headings read alike, the source gives them in different places.
Legend:
[1] = tested on: HCV; experiment: Anti-HCV activity in HCV-infected Huh7.5 cells (intracellular HCV RNA, qRT-PCR); format: cell-based, hepatitis C virus; settings: for EC50: Hepatitis C virus, read-out: half maximal effective concentration (EC50) against HCV at RNA level; for selective index (SI): Huh7.5 cells, cytotoxicity by MTT assay vs anti-HCV EC50, 72 hrs
[2] = tested on: MDCK cells; experiment: Cytotoxicity in MDCK cells; format: cell-based; settings: Influenza virus BV/Shenzhen/155/2005 test
[3] = Cytotoxicity in MDCK cells; format: cell-based; settings: dog, Influenza virus A/Tianjin-Jinnan/15/2009 test
[4] = tested on: HCV; experiment: Influence of CD36 level on the anti-HCV activity of SSO; format: cell-based, hepatitis C virus; settings: 5 μM SSO for 2 hrs, HCV 150 IU/cell, RNA in 96 hrs, P < 0.01
Method: Intracellular HCV RNA was analyzed with qRT-PCR in 96 hrs.

[5] = target: T1, SR-BI (Homo sapiens, UniProt Q8WTV0); experiment: BIAcore surface plasmon resonance binding to SR-BI-HA; settings: immobilised SR-BI-HA
T1 construct: made in house; host or cells: 293T/17 cells
T1 sequence (Q8WTV0 1-509 isoform Q8WTV0-2): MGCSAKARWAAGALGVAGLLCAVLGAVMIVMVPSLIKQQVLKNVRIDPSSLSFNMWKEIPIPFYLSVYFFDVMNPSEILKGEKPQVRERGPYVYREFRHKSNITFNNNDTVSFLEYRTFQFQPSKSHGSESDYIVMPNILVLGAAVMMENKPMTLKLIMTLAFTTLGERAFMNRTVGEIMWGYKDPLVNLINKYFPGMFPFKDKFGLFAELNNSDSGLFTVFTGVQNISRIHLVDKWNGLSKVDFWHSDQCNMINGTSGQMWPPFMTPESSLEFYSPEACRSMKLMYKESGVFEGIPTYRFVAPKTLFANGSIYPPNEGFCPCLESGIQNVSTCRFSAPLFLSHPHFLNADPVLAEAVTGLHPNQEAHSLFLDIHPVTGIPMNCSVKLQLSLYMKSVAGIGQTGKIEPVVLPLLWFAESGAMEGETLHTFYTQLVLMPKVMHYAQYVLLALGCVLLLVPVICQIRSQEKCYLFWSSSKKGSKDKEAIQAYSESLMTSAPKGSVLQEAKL
Method: The 293T/17 cells were transfected with CD36-HA or SR-BI-HA plasmid using HD transfection reagent. At 48 hrs post transfection, cells were harvested and protein CD36-HA or SR-BI-HA was purified with Pierce Anti-HA Agarose (Thermo Scientific) and then desalinated with Zeba Spin Desaling Columns (Thermo Scientific). The concentration of purified proteins was quantified with Pierce BCA Protein Assay Kit (Thermo Scientific). Then, surface plasmon resonance experiments were performed on a BIAcore biosensor system (BIAcore T100). In brief, the carboxymethylated surface of series S sensor chip CM5 (GE Healthcare Bio-Sciences) was first activated with a mixture of N-hydroxysuccinimide (NHS) and 1-ethyl-3-(3- dimethylaminopropyl) carbodiimide hydro-chloride (EDC) (BIAcore AB). Subsequently, 200 μL of purified CD36-HA or SR-BI-HA at a concentration of 80 μg/mL was injected into the flow cell (FC2) for immobilization on the sensor surface. […] Compound VX-950 was used as negative control. Data were evaluated using the software BIAcore T100 Evaluation (BIAcore AB).

[6] = tested on: HCV; experiment: Inhibition of HCV entry (treatment before, during or after infection); format: cell-based, hepatitis C virus; settings: Huh7.5 cells
Text: Then, the cells were washed and cultured with fresh medium. Intracellular HCV RNA and proteins were detected in 72 hrs.

[7] = tested on: Coxsackie B virus (CoxV-B1); experiment: microbe, parasite or virus in culture; settings: Vero
[8] = tested on: HCV particle; experiment: Interaction between HCV and compounds (direct inactivation of HCV particles); format: cell-based, hepatitis C virus; settings: 1 hr room temperature, Huh7.5, 72 hrs; for HCV inhibitory activity, Group 1 (treated HCV stock, no ultracentrifugation): SSO 10 μM or VX-950 0.5 μM, P < 0.01
[9] = tested on: hepatitis B virus, influenza virus, herpes simplex virus and Coxsackie virus; experiment: Activity of CD36 inhibitors against other viruses; format: cell-based; settings: HepG2.2.15, MDCK and Vero cell cultures
[10] = Cytotoxicity in Vero cells; format: cell-based; settings: African green monkey
[11] = tested on: HCV subgenomic replicon I 377-3′del.S in GS4.3 cells; experiment: HCV subgenomic replicon replication in GS4.3 cells; format: cell-based, hepatitis C virus; settings: 72 hrs incubation, intracellular RNA; VX-950 at 1.0 μM
Method: Huh7.5 cells infected with HCV (45 IU/cell), or GS4.3 replicon cells were treated with different concentration of compounds. After 72 hrs, intracellular RNA was extracted with RNeasy Mini Kit; total intracellular proteins were extracted with PER. HCV RNA and proteins were analyzed with qRT-PCR and WB, respectively. Compound cytotoxicity in Huh7.5 cells or GS4.3 replicon cells were evaluated at 72 hrs with the tetrazolium (MTT, Amresco) assay.

[12] = tested on: KM mice; experiment: Safety of SSO in vivo (single oral dose, KM mice); settings: single oral dose up to 1000 mg/kg, day 7
Text: KM mice at a weight of 21.0 ± 1.0 g were from Laboratory Animal Center, Academy of Military Medical Sciences, Beijing, China. The mice were randomly divided into four groups with 10 mice in each (♂ × 5, ♀ × 5). […] Body weight as well as survival was monitored. Seven days later, blood samples were taken for liver and kidney function examination.

[13] = Cytotoxicity in HepG2.2.15 cells; format: cell-based; settings: human, HBV test
[14] = tested on: herpes simplex virus type 1 (HSV-1); experiment: Activity against HSV-1 in Vero cells; format: cell-based; settings: Human alphaherpesvirus 1; HSV-1, Vero
[15] = tested on: Influenza virus BV/Shenzhen/155/2005; experiment: microbe, parasite or virus in culture; settings: unidentified influenza virus, MDCK
[16] = tested on: Influenza virus A/Tianjin-Jinnan/15/2009; experiment: microbe, parasite or virus in culture; settings: unidentified influenza virus, MDCK
[17] = tested on: hepatitis B virus (HBV); experiment: Activity against HBV in HepG2.2.15 cells; format: cell-based
[18] = target: T2, CD36 (Homo sapiens, UniProt P16671); experiment: BIAcore surface plasmon resonance binding to CD36-HA; settings: immobilised CD36-HA; SSO 50, 100, 200, 500 μM
T2 construct: made in house; host or cells: 293T/17 cells
T2 sequence (P16671 whole entry): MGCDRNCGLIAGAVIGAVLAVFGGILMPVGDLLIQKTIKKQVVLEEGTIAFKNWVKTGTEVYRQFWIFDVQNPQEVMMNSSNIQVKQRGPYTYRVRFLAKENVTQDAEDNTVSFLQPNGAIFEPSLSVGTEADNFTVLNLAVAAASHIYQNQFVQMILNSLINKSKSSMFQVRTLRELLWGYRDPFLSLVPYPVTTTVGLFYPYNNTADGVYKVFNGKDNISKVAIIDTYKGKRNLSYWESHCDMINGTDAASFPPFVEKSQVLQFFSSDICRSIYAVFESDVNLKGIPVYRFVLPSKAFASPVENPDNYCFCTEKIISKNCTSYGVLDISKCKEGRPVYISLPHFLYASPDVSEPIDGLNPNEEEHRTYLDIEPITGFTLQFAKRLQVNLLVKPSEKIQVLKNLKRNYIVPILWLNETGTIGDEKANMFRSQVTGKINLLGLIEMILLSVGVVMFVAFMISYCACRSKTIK

[19] = tested on: HCV; experiment: Time-of-addition assay; format: cell-based, hepatitis C virus; settings: 10 nM bafilomycin A1, Huh7.5, HCV 300 IU/cell
Method: Huh7.5 cells were infected with HCV (300 IU/cell) and incubated at 4 °C for 2 hrs, the cells were then washed with cold PBS and shifted to 37 °C (set as 0 hr time point) to initiate synchronous infection. […] Intracellular HCV RNA was detected after 72 hrs incubation. Inhibitory ratio was calculated as % relative to infectious control (0%). Fitted lines represent sigmoidal time-dependent curves.

## COc1cc(O)c(/C=N/NC(=O)c2cc3ccccc3s2)c(OC)c1 [AP5055]
[1]; Huh7.5 cells infected with HCV (45 IU/cell), 72 hrs, intracellular HCV RNA
  EC50: 0.39 ± 0.16 µM
[1]
  selective index (SI): 25

## CCCCCCCC/C=C\CCCCCCCC(=O)ON1C(=O)CC(S(=O)(=O)O)C1=O (centres unmarked) [SSO, sulfo-N-succinimidyl oleate]
[2]
  CC50: > 200 µM
[3]
  CC50: > 200 µM
[4]
  anti-HCV activity of SSO in cells transfected with CD36 plasmid: decreased
  anti-HCV activity of SSO in cells transfected with siRNA for CD36: increased
[5]
  direct binding to SR-BI (BIAcore): no binding on SR-BI
[6]; 2 hrs treatment after infection, detected in 72 hrs, P > 0.05
  HCV replication, treatment after infection: no inhibitory effect
[6]; 2 hrs treatment, HCV RNA and proteins in 72 hrs, P < 0.01
  HCV replication, treatment before and during HCV infection: strongly inhibit HCV replication
[7]
  EC50: > 66.7 µM
[8]
  HCV inhibitory activity, Group 1 (treated HCV stock, no ultracentrifugation): showed HCV inhibitory activity
[8]; SSO 10 μM, ultracentrifuged, P > 0.05
  infectivity of treated virus, Group 2 (after ultracentrifugation): infectivity equal to that of untreated control
[9]
  inhibitory activity on hepatitis B virus, influenza virus, herpes simplex virus and Coxsackie virus: no inhibitory activity
[10]; CoxV-B1 test
  CC50: 111 µM
[10]; HSV-1 test
  CC50: > 200 µM
[11]
  replication of the HCV replicon in GS4.3 cells: did not inhibit the replication
[12]
  liver and kidney function: blood GOT, GPT, BUN and CRE: abnormality was not detected
[1]; Huh7.5, 72 h
  EC50: 0.31 ± 0.09 µM
[1]; SSO 1.0 μM + IFN-α 1.0 U/mL, HCV-infected Huh7.5 cells, 72 hrs, P < 0.05 vs IFN-α alone
  anti-HCV efficacy in combination with IFN-α: enhanced anti-HCV efficacy
[1]; SSO 1.0 μM + VX-950 0.1 μM, HCV-infected Huh7.5 cells, 72 hrs, P < 0.05 vs telaprevir alone
  anti-HCV efficacy in combination with telaprevir (VX-950): enhanced anti-HCV efficacy
[13]
  CC50: > 100 µM
[14]
  EC50: > 200 µM
[15]
  EC50: 200 µM
[16]
  EC50: 79 µM
[17]
  EC50: > 100 µM

## CCC[C@H](NC(=O)[C@@H]1[C@H]2CCC[C@H]2CN1C(=O)[C@@H](NC(=O)[C@@H](NC(=O)c1cnccn1)C1CCCCC1)C(C)(C)C)C(=O)C(=O)NC1CC1 [VX-950, telaprevir]
[5]
  direct binding to SR-BI (BIAcore): no binding on SR-BI
[8]
  HCV inhibitory activity, Group 1 (treated HCV stock, no ultracentrifugation): showed HCV inhibitory activity
[11]
  replication of the HCV replicon in GS4.3 cells: strong inhibitory effect
[18]
  direct binding to CD36 (BIAcore): did not bind onto CD36

## COc1ccc2cc[n+](CCc3ccccc3)cc2c1O [W-9]
[1]; Huh7.5, 72 h
  EC50: 6.61 ± 3.18 µM
[1]
  selective index (SI): 20

## CO/C1=C\C(C)=C\[C@@H](C)[C@@H](O)[C@@H](C)C/C(C)=C/C=C/[C@H](OC)[C@@H]([C@@H](C)[C@@H](O)[C@H](C)[C@@]2(O)C[C@@H](O)[C@H](C)[C@@H](C(C)C)O2)OC1=O [bafilomycin A1]
[19]
  time HCV remained sensitive to the inhibitor after shift to 37 °C: 3 h

— publication PMC4761891, “CD36 is a co-receptor for hepatitis C virus E1 protein attachment” (Scientific Reports, 2016)
